In patent US8227418B2 (priority 2004, dated 2012):

Legend:
[1] = tested on: ERK and p38 MAPK phosphorylation in RAW 264.7 cells; assay type: cell-based, murine
[2] = target: LF (anthrax lethal factor) (Bacillus anthracis, UniProt P15917); assay type: biochemical, B. anthracis
[3] = tested on: anthrax LeTx cytolysis of RAW 264.7 cells
[4] = tested on: cleavage of MKK3b by LF in RAW 264.7 macrophages; assay type: cell-based, murine
LeTx intoxication = tested on: LeTx intoxication; design: species or system Balb/c mice; conditions: mouse, in vivo, iv

| Substance | Restoration of ERK and p38 phosphorylation inhibited by LeTx [1] | Inhibition of in vitro MKK3b proteolysis by LF [2] | Prevention of LeTx toxicity by pre-treatment of macrophages [3] | Protection of RAW 264.7 cells 24 hrs after LeTx treatment [3] | Protection of RAW 264.7 cells against cytotoxicity by LeTx (co-treatment) [3] | Protection of RAW 264.7 cells from LeTx induced cytotoxicity under serum-supplemented conditions [3] | Inhibition of MKK3b cleavage in LeTx treated cells [4] | Protection of mice from LeTx intoxication (survival) (LeTx intoxication) |
| --- | --- | --- | --- | --- | --- | --- | --- | --- |
| HNP-1 | phosphorylation of these two MAPKs was restored | proteolysis was efficiently inhibited | prevented LeTx toxicity in a HNP-1 dose dependent manner | protection was observed even 24 hrs after LeTx treatment | completely abolished cytotoxicity | still protected cells from LeTx induced cytotoxicity | efficiently inhibited | – |
| HNP-2 (CYCRIPACIAGERRYGTCIYQGRLWAFCC; homo sapiens) | – | – | – | – | showed similar protection | – | – | – |
| LL-37 | – | did not prevent cleavage of MKK3b | – | – | did not display any significant effect | – | – | had no effect on LeTx toxicity |
| Magainin I | – | did not prevent cleavage of MKK3b | – | – | – | – | – | – |
